Test systems include Aspergillus fumigatus; Escherichia coli D22; Micrococcus luteus A270; Escherichia coli D31; Candida albicans 01U; Candida albicans 38U; Candida parapsilosis; Trichophyton rubrum; Escherichia coli D21; Azotobacter vinelandii.
Assay in all cases: ≥ marks a high value that may be exact or a test limit, other limits are often not marked, values filed in µg/mL are converted to µM
In test [1] the test system is Neurospora crassa CBS 327-54.
Test [2] has as its system Candida albicans ATCC 14053.
In test [3] the test system is Klebsiella pneumoniae ATCC 13883.
Test [4] deals with Pseudomonas aeruginosa ATCC 27853.
The subject of test [5] is Staphylococcus aureus ATCC 25923.
For test [6], the system named is Enterococcus faecalis ATCC 29212.
In test [7] the test system is Escherichia coli ATCC 11775.
For test [8], the system named is Escherichia coli ATCC 25922.
In test [9] the test system is Escherichia coli ATCC 43827.
Test [10] relates to Cryptococcus neoformans L26.
The subject of test [11] is Cryptococcus neoformans L30.
For test [12], the system named is Trichophyton mentagrophytes.
In test [13] the test system is Listeria monocytogenes DBFIQ LM3.
The test system of test [14] is Staphylococcus aureus DBFIQ S21.
Test [15] relates to Acinetobacter baumannii ATCC 19606.
Test [16] deals with Aspergillus fumigatus ATCC 26430.
The test system of test [17] is Enterococcus faecalis ATCC 19433.
The subject of test [18] is Staphylococcus aureus II ATCC 6538P.
Test [19] relates to Salmonella enterica subsp. enterica serovar Typhimurium ATCC 14028.
Test [20] concerns Clavibacter michiganensis subsp. michiganensis DSM 46294.
Test [21] deals with Pectobacterium carotovorum subsp. carotovorum DSM 30168.
Test [22] relates to Pseudomonas corrugata DSM 7228.
The test system of test [23] is Pseudomonas syringae pv. syringae DSM 10604.
Test [24] has as its system Pseudomonas syringae pv. tomato DC3000.
Test [25] deals with Staphylococcus aureus 90857.
In test [26] the test system is Xanthomonas vesicatoria DSM 50861.

One may read the MIC as the smallest concentration in the dilution series that meets the test's criterion for growth inhibition.

≈ marks a conversion by molar mass, not a printed value. Where “and” joins values, the source holds several entries; their conditions need not be identical. Identical values can stand only once.

For `CSCC[C@H](NC(=O)[C@H](CO)NC(=O)[C@@H](N)CO)C(=O)N[C@@H](CCCCN)C(=O)N[C@@H](CC(C)C)C(=O)N[C@@H](CO)C(=O)N[C@@H](Cc1ccccc1)C(=O)N[C@@H](CCCN=C(N)N)C(=O)N[C@@H](C)C(=O)N[C@@H](CCCN=C(N)N)C(=O)N[C@@H](C)C(=O)N[C@@H](Cc1ccc(O)cc1)C(=O)N[C@@H](CO)C(=O)N[C@@H](Cc1ccccc1)C(=O)N[C@@H](CCCN=C(N)N)C(=O)NCC(=O)N1CCC[C@H]1C(=O)NCC(=O)N1CCC[C@H]1C(=O)N[C@@H](CCC(N)=O)C(=O)N[C@@H](CC(C)C)C(=O)O` [SSMKLSFRARAYSFRGPGPQL], the MIC against Aspergillus fumigatus is at least 80 µM; in the test on Escherichia coli D22, at least 40 µM; in the test on Micrococcus luteus A270, 2 µM (≈ 4.71 µg/mL); in test [1], 5 µM (≈ 11.8 µg/mL).

With `CC[C@H](C)[C@@H]1NC(=O)CNC(=O)[C@H](CCCCN)NC(=O)[C@H](CC(N)=O)NC(=O)[C@H](CCCNC(=N)N)NC(=O)[C@H](C(C)C)NC(=O)[C@@H](NC(=O)[C@H](CO)NC(=O)[C@@H](NC(=O)[C@@H]2CCCN2C(=O)[C@@H](N)CC(N)=O)C(C)C)CSSC[C@@H]2NC(=O)[C@H](CCCCN)NC(=O)[C@H](C(C)C)NC(=O)[C@H](C)NC(=O)[C@H](CCCNC(=N)N)NC(=O)CNC(=O)[C@H](C(C)C)NC(=O)[C@@H]3CSSC[C@H](NC1=O)C(=O)N[C@@H](C(C)C)C(=O)N1CCC[C@H]1C(=O)N[C@@H]([C@@H](C)CC)C(=O)N[C@@H](CCCNC(=N)N)C(=O)N[C@@H](CSSC[C@@H](C(=O)N[C@@H](CCCNC(=N)N)C(=O)N[C@@H](CCCCN)C(=O)N[C@@H](CCCCN)C(=O)O)NC2=O)C(=O)N1CCC[C@H]1C(=O)NCC(=O)N[C@@H](CO)C(=O)N[C@@H](CCSC)C(=O)N[C@@H](CCCCN)C(=O)N[C@@H](CCC(N)=O)C(=O)N[C@@H]([C@@H](C)CC)C(=O)NCC(=O)N[C@@H]([C@@H](C)O)C(=O)N3` [NPVSCVRNKGICVPIRCPGSMKQIGTCVGRAVKCCRKK], the MIC in test [2] was determined as 2.07 µM (≈ 8.47 µg/mL); in the test on Escherichia coli D31 it was 4.23 µM (≈ 17.3 µg/mL); in test [3] it was 4.23 µM (≈ 17.3 µg/mL); in test [4] it was 8.64 µM (≈ 35.3 µg/mL); in [5], 8.64 µM (≈ 35.3 µg/mL).

On to `NC(=O)CC[C@H](NC(=O)[C@H](Cc1c[nH]c2ccccc12)NC(=O)[C@H](CCCN=C(N)N)NC(=O)[C@@H](N)CCCN=C(N)N)C(=O)N[C@@H](Cc1c[nH]c2ccccc12)C(=O)N[C@@H](CCCN=C(N)N)C(=O)O` [RRWQWR], for which the MIC is 44 µM (≈ 43.4 µg/mL) in [6], 22 µM (≈ 21.7 µg/mL) in test [7], 22 µM (≈ 21.7 µg/mL) in test [8] and 5 µM (≈ 4.94 µg/mL) in test [9].

Consider `CC[C@H](C)[C@H](NC(=O)[C@H](CC(C)C)NC(=O)[C@H](CCC(=O)O)NC(=O)[C@H](CO)NC(=O)[C@H](CCCN=C(N)N)NC(=O)[C@@H](N)CO)C(=O)N[C@H](C(=O)N[C@@H](Cc1cnc[nH]1)C(=O)N[C@@H](CCC(N)=O)C(=O)N[C@@H](CCCN=C(N)N)C(N)=O)C(C)C` [SRSELIVHQR], for which the MIC is at least 52.3 µM with Candida albicans 01U; 26.1 µM (≈ 32 µg/mL) against Candida albicans 38U; at least 209 µM in the test with Candida parapsilosis; at least 105 µM in test [10]; at least 209 µM in test [11]; at least 209 µM in [12]. In the test on Trichophyton rubrum, this compound displayed an MIC of 26.1 µM (≈ 32 µg/mL).

Turning to `CC[C@H](C)[C@H](NC(=O)[C@H](C)NC(=O)[C@@H](NC(=O)[C@H](C)NC(=O)CN)[C@@H](C)O)C(=O)N[C@@H](CCCCN)C(=O)N[C@@H](CCC(N)=O)C(=O)N[C@H](C(=O)N[C@@H](CCCCN)C(=O)N[C@@H](CCCCN)C(=O)N[C@@H](CC(C)C)C(=O)N[C@@H](Cc1ccccc1)C(=O)N[C@@H](CCCCN)C(=O)N[C@@H](CCCCN)C(=O)N[C@@H](CCCCN)C(=O)NCC(=O)NCC(N)=O)C(C)C` [GATAIKQVKKLFKKKGG], the values for the MIC in test [13] and in test [14] were 17.8 µM (≈ 32.1 µg/mL) and 8.9 µM (≈ 16 µg/mL), respectively.

Consider `CC(C)C[C@H](NC(=O)[C@H](CCCN=C(N)N)NC(=O)[C@H](CCCN=C(N)N)NC(=O)[C@H](CC(C)C)NC(=O)[C@H](CC(C)C)NC(=O)[C@H](CCCN=C(N)N)NC(=O)[C@H](CCCN=C(N)N)NC(=O)[C@H](CC(C)C)NC(=O)[C@H](CC(C)C)NC(=O)[C@H](CCCN=C(N)N)NC(=O)[C@H](CCCN=C(N)N)NC(=O)[C@H](CC(C)C)NC(=O)[C@H](C)NC(=O)[C@H](CC(=O)O)NC(=O)[C@@H](N)CC(=O)O)C(=O)O` [DDALRRLLRRLLRRL], for which the MIC in [15] was 75 µM and 100 µM; in [16] it was 6.2 µM and 3.1 µM; in [17], at least 100 µM; in test [8] it was 100 µM (≈ 194 µg/mL); against Escherichia coli D21, at least 50 µM; in test [4], 50 µM (≈ 96.8 µg/mL). Also, the MIC in test [18] is ≥ 50 µM and 31 µM.

With `CC(C)[C@H](NC(=O)[C@H](CCCCN)NC(=O)[C@@H](NC(=O)[C@@H](NC(=O)[C@H](CCC(=O)O)NC(=O)[C@H](CC(N)=O)NC(=O)[C@H](CCC(=O)O)NC(=O)[C@H](CCCCN)NC(=O)[C@H](CC(=O)O)NC(=O)[C@H](CC(=O)O)NC(=O)[C@H](CCC(=O)O)NC(=O)[C@H](CCC(=O)O)NC(=O)[C@H](CCC(=O)O)NC(=O)[C@@H](NC(=O)[C@H](CCCCN)NC(=O)[C@H](CC(=O)O)NC(=O)[C@H](CC(=O)O)NC(=O)[C@@H](N)CC(=O)O)[C@@H](C)O)[C@@H](C)O)[C@@H](C)O)C(=O)N[C@H](C(=O)N[C@@H](CCC(=O)O)C(=O)O)C(C)C` [DDDKTEEEDDKENETTKVVE], the values for the MIC (against Azotobacter vinelandii; in [19]) were at least 84.6 µM and 42.3 µM (≈ 100 µg/mL), respectively.

Take `CC[C@H](C)[C@H](NC(=O)[C@H](CCCN=C(N)N)NC(=O)[C@@H](N)CC(C)C)C(=O)N[C@@H](CC(C)C)C(=O)N[C@@H](CCCN=C(N)N)C(=O)N[C@@H](CCCN=C(N)N)C(=O)N[C@@H](CC(C)C)C(=O)N[C@@H](CC(C)C)C(=O)N[C@@H](CCCN=C(N)N)C(=O)N[C@@H](CCCN=C(N)N)C(=O)N[C@@H](CC(C)C)C(=O)N[C@@H](Cc1ccccc1)C(N)=O` [LRILRRLLRRLF]: the MIC was found to be 3.08 µM (≈ 5 µg/mL) in test [20]; 6.15 µM (≈ 9.99 µg/mL) in test [21]; 1.54 µM (≈ 2.5 µg/mL) in test [22]; 6.15 µM (≈ 9.99 µg/mL) in test [23]; 0.615 µM (≈ 0.999 µg/mL) in [24]; 6.25 µM (≈ 10.2 µg/mL) in test [25]. In test [26], this compound came in with an MIC of 3.08 µM (≈ 5 µg/mL).
